Experimental findings from US20230104936A1, “TRPML MODULATORS” (Casma Therapeutics, Inc., priority 2019, published 2023) are described below.

The structures appear in SMILES notation. Bounds are passed on as bounds.

A word on the AC50: it is the concentration at which the activity in the assay is half-maximal.

The test deals with TFEB. The test is described as follows: TFEB nuclear translocation assay, HeLa wt cells. Format: cell-based. The conditions noted are these: Homo sapiens, HeLa, 2 h, 2 hrs compound treatment, Table 1 does not say HeLa wt or TRPML1 KO. In short, it runs like this:
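Read-out is the ratio of TFEB immunofluorescence in the nucleus to that in a ring just outside it, measured by automated imaging. HeLa wt cells received compounds for 2 hrs at 37° C before fixation and staining; AC50 values come from this ratio.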
`COc1ccc(S(=O)(=O)Nc2ccccc2OCc2ccc(F)cc2F)cc1` [Compound A-187, N-(2-((2,4-difluorobenzyl)oxy)phenyl)-4-methoxybenzenesulfonamide] showed an AC50 of at least 10 µM. In the case of `COc1ccc(S(=O)(=O)Nc2ccccc2N2CC(N(C)c3ccc(F)cc3F)C2)cc1` [Compound A-188, N-(2-{3-[(2,4-difluorophenyl)(methyl)amino]azetidin-1-yl}phenyl)-4-methoxybenzene-1-sulfonamide] it was at least 10 µM. In the case of `COc1ccc(S(=O)(=O)Nc2ccccc2N2CCC(N(C)c3ccc(F)cc3F)CC2)cc1` [Compound A-189, N-(2-{4-[(2,4-difluorophenyl)(methyl)amino]piperidin-1-yl}phenyl)-4-methoxybenzene-1-sulfonamide] it was at most 2 µM; in that of `CN(C)S(=O)(=O)c1ccc([S+]([O-])Cc2ccccc2N2CCC(c3ccc(Cl)cc3F)CC2)cc1` (stereo not shown) [Compound A-190, 4-((2-(4-(4-chloro-2-fluorophenyl)piperidin-1-yl)benzyl)sulfinyl)-N,N-dimethylbenzenesulfonamide], at most 2 µM. The figure for `O=C(c1ccc(S(=O)(=O)Nc2ccccc2N2CCC(c3ccc(Cl)cc3F)CC2)cc1)C(F)(F)F` [Compound A-191, N-{2-[4-(4-chloro-2-fluorophenyl)piperidin-1-yl]phenyl}-4-(2,2,2-trifluoroacetyl)benzene-1-sulfonamide] is 2.01 to 8 µM; for `COc1ccc(S(=O)(=O)Nc2ccncc2N2CCC(c3ncc(F)cc3F)CC2)cc1` [Compound A-192, N-{3-[4-(3,5-difluoropyridin-2-yl)piperidin-1-yl]pyridin-4-yl}-4-methoxybenzene-1-sulfonamide] it is at least 10 µM.

`COc1ccc(S(=O)(=O)Nc2cnccc2N2CCC(c3ncc(F)cc3F)CC2)cc1` [Compound A-193, N-{4-[4-(3,5-difluoropyridin-2-yl)piperidin-1-yl]pyridin-3-yl}-4-methoxybenzene-1-sulfonamide] had an AC50 of at least 10 µM. In the case of `COc1ccc(S(=O)(=O)Nc2ccccc2N2CCN(Cc3ccc(F)cc3F)CC2)cc1` [Compound A-194, N-(2-{4-[(2,4-difluorophenyl)methyl]piperazin-1-yl}phenyl)-4-methoxybenzene-1-sulfonamide] it was at least 10 µM; in that of `COc1ccc(S(=O)(=O)Nc2ccccc2N2CCC(Cc3ccc(F)cc3F)CC2)cc1` [Compound A-195, N-(2-{4-[(2,4-difluorophenyl)methyl]piperidin-1-yl}phenyl)-4-methoxybenzene-1-sulfonamide], 2.01 to 8 µM; in that of `COc1ccc(S(=O)(=O)Nc2ccccc2N2CCC(Oc3ccc(F)cc3F)CC2)cc1` [Compound A-196, N-{2-[4-(2,4-difluorophenoxy)piperidin-1-yl]phenyl}-4-methoxybenzene-1-sulfonamide], at most 2 µM.

In turn, `COc1ccc(S(=O)(=O)Nc2ccccc2N2CCC(Cc3ccc(F)cc3F)C2)cc1` (stereo not shown) [Compound A-197, N-(2-{3-[(2,4-difluorophenyl)methyl]pyrrolidin-1-yl}phenyl)-4-methoxybenzene-1-sulfonamide] had an AC50 of at least 10 µM. The figure for `CCS(=O)(=O)c1ccc(S(=O)(=O)Nc2ccccc2N2CCC(c3c(F)cccc3F)CC2)cc1` [Compound A-198, N-{2-[4-(2,6-difluorophenyl)piperidin-1-yl]phenyl}-4-(ethanesulfonyl)benzene-1-sulfonamide] is at most 2 µM; for `COc1ccc(S(=O)(=O)Nc2ccccc2N(C)c2ccc(F)cc2F)cc1` [Compound A-199, N-{2-[(2,4-difluorophenyl)(methyl)amino]phenyl}-4-methoxybenzene-1-sulfonamide] it is at least 10 µM. Turning to `COc1ccc(S(=O)(=O)Nc2ccccc2N2CC(Oc3ccc(F)cc3F)C2)cc1` [Compound A-200, N-{2-[3-(2,4-difluorophenoxy)azetidin-1-yl]phenyl}-4-methoxybenzene-1-sulfonamide], the AC50 was in the range of 2.01 to 8 µM.

As to `COc1ccc(S(=O)(=O)Nc2ccccc2N2CCC(N(C)c3ccc(F)cc3F)C2)cc1` (stereo not shown) [Compound A-201, N-(2-{3-[(2,4-difluorophenyl)(methyl)amino]pyrrolidin-1-yl}phenyl)-4-methoxybenzene-1-sulfonamide], the AC50 lay in the range of 2.01 to 8 µM.

`COc1ccc(S(=O)(=O)Nc2ccccc2N2CCC(Oc3ccc(F)cc3F)C2)cc1` (stereo not shown) [Compound A-202, N-{2-[3-(2,4-difluorophenoxy)pyrrolidin-1-yl]phenyl}-4-methoxybenzene-1-sulfonamide] yielded a concentration at half-maximal activity (AC50) of at least 10 µM. `CS(=O)(=O)c1ccc(S(=O)(=O)Nc2ccccc2N2CCC(O)(c3ccc(F)cc3)CC2)cc1` [Compound A-203, N-{2-[4-(4-fluorophenyl)-4-hydroxypiperidin-1-yl]phenyl}-4-methanesulfonylbenzene-1-sulfonamide]: the AC50 is 2.01 to 8 µM.

With `CN(C)S(=O)(=O)c1ccc(S(=O)(=O)Nc2ccccc2N2CCC(C)(c3ccc(Cl)cc3F)CC2)cc1` [Compound A-204, N4-{2-[4-(4-chloro-2-fluorophenyl)-4-methylpiperidin-1-yl]phenyl}-N1,N1-dimethylbenzene-1,4-disulfonamide], the AC50 was at most 2 µM. The figure for `CN(C)S(=O)(=O)c1ccc(S(=O)(=O)Nc2ccccc2N2CCC(C)(c3ccc(F)cc3Cl)CC2)cc1` [Compound A-205, N4-{2-[4-(2-chloro-4-fluorophenyl)-4-methylpiperidin-1-yl]phenyl}-N1,N1-dimethylbenzene-1,4-disulfonamide] is at most 2 µM. The molecule `COc1ccc(S(=O)(=O)Nc2cnncc2N2CCC(c3ncc(F)cc3F)CC2)cc1` [Compound A-206, N-{5-[4-(3,5-difluoropyridin-2-yl)piperidin-1-yl]pyridazin-4-yl}-4-methoxybenzene-1-sulfonamide] returned a concentration at half-maximal activity (AC50) of at least 10 µM. In the case of `COCS(=O)(=O)c1ccc(S(=O)(=O)Nc2ccccc2N2CCC(c3c(F)cccc3F)CC2)cc1` [Compound A-207, N-{2-[4-(2,6-difluorophenyl)piperidin-1-yl]phenyl}-4-methoxymethanesulfonylbenzene-1-sulfonamide] it was at most 2 µM. In the case of `CN(C)S(=O)(=O)c1ccc(S(=O)(=O)Nc2ccccc2N2CCC(O)(c3ccc(F)cn3)CC2)cc1` [Compound A-209, N4-{2-[4-(5-fluoropyridin-2-yl)-4-hydroxypiperidin-1-yl]phenyl}-N1,N1-dimethylbenzene-1,4-disulfonamide] it was at most 2 µM; in that of `CN(C)S(=O)(=O)c1ccc(S(=O)(=O)Nc2ccccc2N2CCC(O)(c3cc(Br)ncc3F)CC2)cc1` [Compound A-210, N4-{2-[4-(2-bromo-5-fluoropyridin-4-yl)-4-hydroxypiperidin-1-yl]phenyl}-N1,N1-dimethylbenzene-1,4-disulfonamide], at most 2 µM. For `CN(C)C1(c2ccc(Cl)cc2F)CCN(c2ccccc2NS(=O)(=O)c2ccc(S(=O)(=O)N(C)C)cc2)CC1` [Compound A-211, N4-{2-[4-(4-chloro-2-fluorophenyl)-4-(dimethylamino)piperidin-1-yl]phenyl}-N1,N1-dimethylbenzene-1,4-disulfonamide], the concentration at half-maximal activity (AC50) was at most 2 µM. The figure for `CNC1(c2ccc(Cl)cc2F)CCN(c2ccccc2NS(=O)(=O)c2ccc(S(=O)(=O)N(C)C)cc2)CC1` [Compound A-212, N4-{2-[4-(4-chloro-2-fluorophenyl)-4-(methylamino)piperidin-1-yl]phenyl}-N1,N1-dimethylbenzene-1,4-disulfonamide] is at most 2 µM.
